Experimental data: patent publication US11523614B2, “Soluble granule of Bacillus velezensis and its preparation method” (priority 2019, dated 2022)
Like-named read-outs stand apart in the source and are kept apart here.

Assays:
Type in all cases: in vivo
cucumber = assay: Cucumber plant height at early stage; settings: for Growth effect: plant height compared with CK0; for plant height at early stage, Avg. value: average of three replicates; for plant height at early stage, R1: average value of replicate 1; for plant height at early stage, R3: average value of replicate 3
Meloidogyne incognita [1] = assay: Population density of J2 of root knot nematodes in soil, cucumber greenhouse; settings: for Population decline rate / Relative population reduction rate: J2 in soil; for Population decline rate: before administration vs end of test; for Relative population reduction rate: compared with the blank control; for population density of second instar larvae in soil, Before administration / population density of second instar larvae in soil, End of test: cucumber greenhouse soil
Rice blast [2] = settings: 27 d After first administration; for Relative control: panicle blast
Rice blast [3] = settings: for Avg. control effect: leaf blast
Meloidogyne incognita [4] = assay: Root-knot disease index of cucumber; settings: for root-knot index of plants, Avg. value: average of three replicates; for root-knot index of plants, R1: average value of replicate 1; for root-knot index of plants, R3: average value of replicate 3
[5] = 14 d After first administration
[6] = before the first administration
[7] = root-knot index compared with CK0

## C[C@H]1O[C@H](O[C@H]2[C@H](O)[C@@H](O)[C@@H](O)[C@H](O)[C@@H]2O)[C@@H](N)C[C@@H]1NC(=N)C(=O)O [CK2, kasugamycin]
cucumber
  Growth effect: 6.5%
Meloidogyne incognita [1]
  Population decline rate: 73.31%
  Relative population reduction rate: 76.05%
Rice blast [2]
  Avg. panicle blast disease index: 0.86
  Relative control: 66.3A %
Rice blast [3]; 7 d After first administration
  Avg. leaf blast disease index: 2.26
  Avg. control effect: 40.8AB %
Rice blast [3]; [5]
  Avg. leaf blast disease index: 2.30
  Avg. control effect: 55.7A %
Rice blast [3]; [6]
  Leaf blast disease index before first administration: 1.61

## Cc1cccc2sc3nncn3c12 [CK3, Tricyclazole]
Rice blast [2]
  Avg. panicle blast disease index: 0.65
  Relative control: 74.7A %
Rice blast [3]; 7 d After first administration
  Avg. leaf blast disease index: 2.04
  Avg. control effect: 48.2A %
Rice blast [3]; [5]
  Avg. leaf blast disease index: 2.14
  Avg. control effect: 60.3A %
Rice blast [3]; [6]
  Leaf rust before administration: 1.59

## O=C(NCc1ncc(C(F)(F)F)cc1Cl)c1c(Cl)cccc1Cl [Fluopicolide, fluopicolide]
cucumber
  plant height at early stage, Avg. value: 107.6bc cm
  plant height at early stage, R1: 109.4 cm
  plant height at early stage, R3: 109.3 cm
  Growth effect: 6.5%
Meloidogyne incognita [1]
  Population decline rate: 73.31%
  Relative population reduction rate: 76.05%
  population density of second instar larvae in soil, Before administration: 390 strip/100 mL soil
  population density of second instar larvae in soil, End of test: 104 strip/100 mL soil
Meloidogyne incognita [4]
  root-knot index of plants, Avg. value: 25.00a
  root-knot index of plants, R1: 28.33
  root-knot index of plants, R3: 24.67
Meloidogyne incognita [4]; [7]
  Growth effect: 30.77%

## CN1CSC(=S)N(C)C1 [Dazomet, dazomet]
cucumber
  plant height at early stage, Avg. value: 100.6a cm
  plant height at early stage, R1: 98.5 cm
  plant height at early stage, R3: 103.5 cm
  Growth effect: −0.4%
Meloidogyne incognita [1]
  Population decline rate: −119.21%
  Relative population reduction rate: −116.47%
  population density of second instar larvae in soil, Before administration: 429 strip/100 mL soil
  population density of second instar larvae in soil, End of test: 940 strip/100 mL soil
Meloidogyne incognita [4]
  root-knot index of plants, Avg. value: 26.44ab
  root-knot index of plants, R1: 27.33
  root-knot index of plants, R3: 26.33
Meloidogyne incognita [4]; [7]
  Control effect on root-knot index: 26.77%
